# Data from patent US10844023B2 (Washington University, priority 2017, dated 2020).
# Entries after “also recorded” stand apart in the source; their conditions may differ.
# Test system: Mfn2 null MEFs
# Assay: Mitochondrial elongation (aspect ratio) fusogenicity assay
# Format: cell-based, mouse
# Parameters: % long compare to B: dose or concentration left out as unconfirmed
# Conditions: for % long compare to B: mitochondrial elongation relative to Cpd B (B01 = 100), compound overnight as printed (FIG. 48); for % long compare to B / Aspect ratio (MEAN ± SEM): Mfn2 null MEFs; for Aspect ratio (MEAN ± SEM): overnight, treatment with 1 μM compound (footnote); for Fusogenicity Rank: rank order of aspect ratio among 44 soluble library compounds
# From the text: A cultured murine embryonic fibroblast assay system was used in which mitochondrial elongation (an increase in aspect ratio) reflects enhanced mitochondrial fusion.
# A pharmacophore model was generated based on the interactions of HR1 and HR2 domains in the calculated structural model of Mfn2 in the closed conformation. The key features included hydrophobic interactions involving Mfn2 HR1: Val372 and Met376, and aromatic interactions and hydrogen bonding involving Mfn2 HR1 His380. […] A library comprising ˜14 million commercially available compounds was prepared in silico and evaluated using PHASE to fit these criteria. Top ranked hits were clustered, and filtered based on pharmacological properties using Qikprop. The top 55 (see TABLE 4) commercially available small molecules conforming to the model were selected for functional screening and purchased in 1 mg aliquots. […] Images were acquired by confocal microscopy. Each compound was scored for fusogenicity (see e.g., FIG. 24A) and % cell death (see e.g., FIG. 24B).
# Cells were excited with 408 nm (Hoechst), […] (MitoTracker Green and Calcein AM, GFP), or 637 nm (TMRE, MitoTracker Orange, Ethidium homodimer-1, and AF594-Dextran) laser diodes. For mitochondrial elongation studies mitochondrial aspect ratio (long axis/short axis) was calculated using automated edge detection and Image J software. Mitochondrial depolarization was calculated as % of green mitochondria visualized on MitoTracker Green and TMRE merged images, expressed as green/(green+yellow mitochondria)×100.
smiles,measurement,setting,value
"Cc1ccc(NC(=O)NCCCCc2ccccc2)cc1 [A4, 3-(4-methylphenyl)-1-(4-phenylbutyl)urea]",% long compare to B,,75%
"COc1ccccc1-n1cnnc1SCC(=O)Nc1sc2c(c1C(N)=O)CCC2 [1-E2, 2-(2-{[4-(2-methoxyphenyl)-4H-1,2,4-triazol-3-yl]sulfanyl}acet-amido)-4H,5H,6H-cyclopenta-[b]thiophene-3-carboxamide]",% long compare to B,,17%
"Cc1occc1-c1nnc(SC(C)C(=O)Nc2sc3c(c2C(N)=O)CCC3)n1-c1ccccc1 (centres unmarked) [1-B8, 2-(2-{[5-(2-methylfuran-3-yl)-4-phenyl-4H-1,2,4-triazol-3-yl]sulfanyl}propanamido)-4H,5H,6H-cyclopenta[b]thio-phene-3-carboxamide]",% long compare to B,,20%
"Cc1ccc2c(c1)SC(C(=O)NCc1ccc(N3CCCN(C)CC3)nc1)C2 (centres unmarked) [drawing 212, 6-methyl-N-{[6-(4-methyl-1,4-diazepan-1-yl)pyridin-3-yl]methyl}-2,3-dihydro-1-benzothiophene-2-carboxamide]",Aspect ratio (MEAN ± SEM),,4.0 ± 0.3
same,Fusogenicity Rank,,18
"O=C(NCCSCc1ccccc1)NC1CCCC1 [1-H9, 1-[2-(benzylsulfanyl)ethyl]-3-cyclopentylurea]",% long compare to B,,29%
"Cn1c(SCC(=O)Nc2sc3c(c2C(N)=O)CCC3)nnc1C(F)(F)F [1-B4, 2-(2-{[4-methyl-5-(trifluoro-methyl)-4H-1,2,4-triazol-3-yl]sulfanyl}acetamido)-4H,5H,6H-cyclopenta[b]-thiophene-3-carboxamide]",% long compare to B,,10%
"Cn1c(Cc2ccccc2)nnc1SCC(=O)Nc1sc2c(c1C(N)=O)CCC2 [1-H7, 2-{2-[(5-benzyl-4-methyl-4H-1,2,4-triazol-3-yl)sulfanyl]-acetamido}-4H,5H,6H-cyclopenta[b]thiophene-3-carboxamide]",% long compare to B,,6%
"CC(/N=N/C(=N)SC1CC(=O)N(c2cccc(C(=O)O)c2)C1=O)c1ccccc1 (centres unmarked) [C10, 3-(2,5-dioxo-3-{[(E)-N-[(1-phenylethyl)imino]car-bamimidoyl]sul-fanyl}pyrrolidin-1-yl)benzoic acid]",% long compare to B,,0%
"NC(=O)c1c(NC(=O)CSc2nnc(C3CC3)n2-c2ccccc2)sc2c1CCC2 [1-B3, 2-{2-[(5-cyclopropyl-4-phenyl-4H-1,2,4-triazol-3-yl)sulfanyl]acetamido}-4H,5H,6H-cyclopenta[b]thiophene-3-carboxamide]",% long compare to B,,90%
"Cc1ccc(-c2noc(CSCCCC(=O)Nc3c(C)cccc3C)n2)cc1F [B08, N-(2,6-dimethylphenyl)-4-({[3-(3-fluoro-4-methylphenyl)-1,2,4-oxadiazol-5-yl]methyl}sulfanyl)-butanamide]",% long compare to B,,12%
"N#Cc1c(NC(=O)CSc2nnc(C3CC3)n2-c2ccccc2)sc2c1CCCC2 [1-C1, N-(3-cyano-4,5,6,7-tetrahydro-1-benzothiophen-2-yl)-2-[(5-cyclopropyl-4-phenyl-4H-1,2,4-triazol-3-yl)sulfanyl]acetamide]",% long compare to B,,19%
"CC(Sc1nnc(N2CCOCC2)n1Cc1ccccc1)C(=O)Nc1ccc2c(c1)OCCO2 (centres unmarked) [A09, 2-{[4-benzyl-5-(morpholin-4-yl)-4H-1,2,4-triazol-3-yl]sulfanyl}-N-(2,3-dihydro-1,4-benzodioxin-6-yl)propanamide]",% long compare to B,,55%
"Cc1ccc(N2C[C@@H]3CC[C@H](C2)N(Cc2ccccn2)C3=O)nn1 [drawing 245, (1S,5R)-3-(6-methylpyridazin-3-yl)-6-[(pyridin-2-yl)methyl]-3,6-diazabicyclo[3.2.2]nonan-7-one]",Aspect ratio (MEAN ± SEM),,3.0 ± 0.4
same,Fusogenicity Rank,,36
"NC(=O)c1c(NC(=O)CSc2nnc(Cc3cccs3)n2-c2ccccc2)sc2c1CCC2 [1-C8, 2-[2-({4-phenyl-5-[(thiophen-2-yl)methyl]-4H-1,2,4-triazol-3-yl}sulfanyl)acetamido]-4H,5H,6H-cyclopenta[b]thio-phene-3-carboxamide]",% long compare to B,,35%
"CC1CCc2c(sc(NC(=O)CSc3nnc4n3CCCCC4)c2C(N)=O)C1 (centres unmarked) [1-A4, 6-methyl-2-(2-{5H,6H,7H,8H,9H-[1,2,4]triazolo[4,3-a]azepin-3-ylsulfanyl}acetamido)-4,5,6,7-tetrahydro-1-benzothiophene-3-carboxamide]",% long compare to B,,2%
"Cc1ccc(SC2CCN(Cc3cc4n(n3)CCNC4)CC2)cc1 [D10, 4-[(4-methylphenyl)sulfanyl]-1-({4H,5H,6H,7H-pyrazolo[1,5-a]pyrazin-2-yl}methyl)piperidine]",% long compare to B,,−7%
"COc1ccc(NC(=O)c2c(NC(=O)CSc3nnc(C4CC4)n3C)sc3c2CCCC3)cc1 [1-E4, 2-{2-[(5-cyclopropyl-4-methyl-4H-1,2,4-triazol-3-yl)sulfanyl]acetamido}-N-(4-methoxyphenyl)-4,5,6,7-tetrahydro-1-benzothiophene-3-carboxamide]",% long compare to B,,17%
"Cc1ccc(C(C)C)c(OCCCSCc2nc3ccccc3[nH]2)c1 [drawing 200, 2-[({3-[5-methyl-2-(propan-2-yl)phenoxy]propyl}sulfanyl)methyl]-1H-1,3-benzodiazole]",Aspect ratio (MEAN ± SEM),,3.0 ± 0.4
same,Fusogenicity Rank,,37
"CCn1c(SCC(=O)Nc2sc3c(c2C(=O)NCc2ccccc2)CCCC3)nnc1C1CC1 [1-E6, N-benzyl-2-{2-[(5-cyclopropyl-4-ethyl-4H-1,2,4-triazol-3-yl)sulfanyl]acetamido}-4,5,6,7-tetrahydro-1-benzothiophene-3-carboxamide]",% long compare to B,,10%
"CC(Sc1nnc2n1CCCCC2)C(=O)Nc1sc2c(c1C(N)=O)CCC2 (centres unmarked) [1-D12, 2-(2-{5H,6H,7H,8H,9H-[1,2,4]triazolo[4,3-a]azepin-3-ylsulfanyl}propanamido)-4H,5H,6H-cyclopenta[b]-thiophene-3-carboxamide]",% long compare to B,,18%
"NC(=O)c1c(NC(=O)CSc2nncn2-c2ccccc2)sc2c1CCC2 [1-C4, 2-{2-[(4-phenyl-4H-1,2,4-triazol-3-yl)sulfanyl]acetamido}-4H,5H,6H-cyclopenta-[b]thiophene-3-carboxamide]",% long compare to B,,−13%
"O=C(CSCc1ccc(F)cc1)N1CCc2c([nH]c3ccccc23)C1c1ccc(Cl)cc1 (centres unmarked) [C07, 1-[1-(4-chlorophenyl)-1H,2H,3H,4H,9H-pyrido[3.4-b]indol-2-yl]-2-{[(4-fluorophenyl)methyl]sulfanyl}ethan-1-one]",% long compare to B,,29%
"O=C(CSCC(=O)N1CCCc2ccccc21)Nc1ccccc1 [D03, 2-{[2-oxo-2-(1,2,3,4-tetrahydroquinolin-1-yl)ethyl]sulfanyl}-N-phenylacetamide]",% long compare to B,,−17%
"CC1CCc2c(sc(NC(=O)CSc3nnc(C4CC4)n3Cc3ccccc3)c2C(N)=O)C1 (centres unmarked) [1-E3, 2-{2-[(4-benzyl-5-cyclopropyl-4H-1,2,4-triazol-3-yl)sulfanyl]acetamido}-6-methyl-4,5,6,7-tetrahydro-1-benzothiophene-3-carboxamide]",% long compare to B,,11%
"Cc1cc(C)n2nc(C(=O)N3C[C@@H]4CCN(Cc5nccn5C)[C@@H]4C3)cc2n1 [drawing 198, 2-{[(3aS,6aS)-5-{5,7-dimethylpyrazolo[1,5-a]pyrimidine-2-carbonyl}-octahydropyrrolo[3,4-b]pyrrol-1-yl]methyl}-1-methyl-1H-imidazole]",Aspect ratio (MEAN ± SEM),,9.0 ± 3.1
same,Fusogenicity Rank,,1
"Cc1ccc(-n2c(C)nnc2SCC(=O)Nc2sc3c(c2C(N)=O)CCC3)cc1 [1-F3, 2-(2-{[5-methyl-4-(4-methylphenyl)-4H-1,2,4-triazol-3-yl]sulfanyl}acetamido)-4H,5H,6H-cyclopenta[b]-thiophene-3-carboxamide]",% long compare to B,,13%
"COc1ccc(OCc2nnc(SC(C)C(=O)Nc3sc4c(c3C(N)=O)CCC4)n2C)cc1 (centres unmarked) [D8, 2-[2-({5-[(4-methoxyphenoxy)-methyl]-4-methyl-4H-1,2,4-triazol-3-yl}sulfanyl)propana-mido]-4H,5H,6H-cyclopenta[b)thiophene-3-carboxamide]",% long compare to B,,−1%
"Cc1ccc(N2C[C@@H]3CC[C@H](C2)N(Cc2ccccn2)C3=O)nn1 [D12, (1S,5R)-3-(6-methylpyridazin-3-yl)-6-[(pyridin-2-yl)methyl)-3,6-diazabicyclo[3.2.2] nonan-7-one]",% long compare to B,,−4%
"C=CCn1c(SCC(=O)Nc2sc3c(c2C(N)=O)CCCC3)nnc1C1CC1 [1-F9, 2-(2-{[5-cyclopropyl-4-(prop-2-en-1-yl)-4H-1,2,4-triazol-3-yl]sulfanyl}acet-amido)-4,5,6,7-tetrahydro-1-benzothiophene-3-carboxamide]",% long compare to B,,202%
"O=C1CC(SCCc2nc3ccccc3[nH]2)C(=O)N1c1cccc(F)c1 (centres unmarked) [D9, 3-{[2-(1H-1,3-benzodiazol-2-yl)ethyl]sulfanyl}-1-(3-fluorophenyl)pyrro-lidine-2,5-dione]",Fusogenic activity,mitochondrial elongation / fusion,failed validation in the secondary screen; also recorded: showed no true fusogenic activity
"Cn1c(CC2CCS(=O)(=O)C2)nnc1SCC(=O)Nc1sc2c(c1C(N)=O)CCC2 (centres unmarked) [1-D9, 2-[2-({5-[(1,1-dioxo-1λ^6-thiolan-3-yl)methyl]-4-methyl-4H-1,2,4-triazol-3-yl}sulfanyl)acetamido]-4H,5H,6H-cyclopenta-[b]thiophene-3-carboxamide]",% long compare to B,,5%
